11 molecules from patent US7683077B2, “Piperidine derivative” (Ajinomoto Co., Inc., priority 2003, dated 2010) can be followed below.

For one assay, the target named is T1, Human 5HT-7 (Homo sapiens, UniProt P34969).
T1 construct: host or cells: CHO-K1 (h5HT7-C2 cells)
Nature of the assay: Evaluation of 5HT-7 agonist activity using 5HT-7 expression cells (cAMP). Format: cell-based. The settings on record: cAMP in h5HT7-C2 CHO-K1 cells; 10 μM serotonin = 100%. How it is done: Evaluation of 5HT-7 Agonist Activity Using 5HT-7 Expression Cells
Then, the cAMP concentration was determined using a cAMP EIA kit (RPN225, Amersham) by the method in conformity of the attached protocol (Protocol 2. Acetylation EIA Procedure). […] The cAMP concentrations obtained with varied concentrations of the compound were expressed by percentage (%), and the relationship between the concentration of each compound and the cAMP (%) was approximated to a sigmoid curve. A concentration of the compound corresponding to the cAMP value that is a half the maximum value (Emax) on the approximated sigmoid curve was defined as the value of EC50.

The target of another assay is T2, Human 5-HT7a receptor (Homo sapiens, UniProt P34969).
T2 construct: host or cells: CHO-K1 (h5HT7-C1 cells)
T2 sequence (P34969 1-445 isoform P34969-2): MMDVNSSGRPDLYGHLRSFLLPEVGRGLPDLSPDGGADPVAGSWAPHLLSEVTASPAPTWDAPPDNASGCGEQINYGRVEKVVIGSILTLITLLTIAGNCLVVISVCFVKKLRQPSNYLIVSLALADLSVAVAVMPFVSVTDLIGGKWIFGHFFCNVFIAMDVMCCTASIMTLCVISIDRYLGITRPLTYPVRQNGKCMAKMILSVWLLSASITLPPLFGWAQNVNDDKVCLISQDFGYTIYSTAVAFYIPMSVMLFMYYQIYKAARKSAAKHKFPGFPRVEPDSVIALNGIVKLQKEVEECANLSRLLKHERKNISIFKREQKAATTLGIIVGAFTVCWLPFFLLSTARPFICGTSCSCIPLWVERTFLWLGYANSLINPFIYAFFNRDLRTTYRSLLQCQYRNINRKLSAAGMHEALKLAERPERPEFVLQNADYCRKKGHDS
Nature of the assay: Receptor binding assay (RBA) using 5HT-7 expression cells. The protocol:
Receptor Binding Assay (RBA) Using 5HT-7 Expression Cells
Human 5-HT7a receptor expression CHO—K1 cells (Euroscreen; h5HT7-C1 cells, No. ES-317-C) were cultured in an incubator (CO2: 5%) at 37° C., using Ham's F-12 culture medium containing 400 μg/ml G418, 100 U/ml penicillin, 100 μg/ml streptomycin, and 10% fetal bovine serum. After removal of the culture medium, the cells were washed with phosphate-buffered saline (PBS(−)) free of Ca^2+ and Mg^2+, and then peeled away from a petri dish using HMEE buffer (20 mM HEPES-KOH (pH7.4), 1 mM EDTA, 1 mM EGTA, 2 mM MgCl2). The cells thus collected were homogenized on ice using a Teflon homogenizer, centrifuged at 1,500×g for 5 minutes at 4° C., and the resultant supernatant liquid was then recovered. The supernatant liquid was further centrifuged at 12,000×g for 30 minutes at 4° C. The resultant precipitate was suspended in a HMEE buffer and the resultant suspension was dispensed and flash-frozen in liquid nitrogen. Thus, the frozen product was maintained at −80° C. and melted at room temperature when used in practice. In a 96-well polystyrene round-bottom plate (Falcon, No. 351190), a membrane preparation, the test compound, and 2-[^125I]-(+)-iodo-lysergic acid diethylamide (Perkin Elmer Life Science, No. NEX199) were reacted at room temperature for 3 hours in 50 μL of a binding buffer (50 mM HEPES-NaOH (pH7.4), 1 mM CaCl2, 5 mM MgCl2, 0.5% BSA) in each well. After completion of the reaction, the mixture was trapped by suction into a 96-well GF/B Unifilter plate (Perkin Elmer Life Science, No. 6005177), 50 μL of 0.05% polyethyleneimine being previously added to each well. Each well of the above-mentioned Unifilter plate was washed with about 200 μL of a washing buffer (50 mM HEPES-NaOH (pH7.4), 1 mM CaCl2, 5 mM MgCl2, 0.5 M NaCl, 0.05% Tween-20) three times, and dried overnight. Then, 30 μL of Microscint (Packard, No. NR6013611) was added to each well. The amount of bound 2-[^125I]-(+)-iodo-lysergic acid diethylamide was determined using Top Counter (Packard). The count obtained when 100 μM of crozapine was used as the test compound was fixed at 0%, while the count obtained when no compound was added was fixed at 100%. The binding ratios of 2-[^125I]-(+)-iodo-lysergic acid diethylamide obtained at varied concentrations of the compound were expressed by percentage (%), and the relationship between the concentration of each compound and the binding ratio (%) was approximated to a sigmoid curve. A concentration of the compound corresponding to the binding ratio 50% of 2-[^125I]-(+)-iodo-lysergic acid diethylamide was defined as the value of IC50.

The mark [1] stands for this setting: displacement of 2-[125I]-(+)-iodo-lysergic acid diethylamide, membranes of human 5-HT7a CHO-K1 cells, read-out: pIC50 (converted).

Where two headings read alike, the source gives them in different places.

T1 sequence (P34969 1-445 isoform P34969-2): as above

The molecule `COc1ccc(OC)c(C(=C2CCNCC2)c2cccc(Cl)c2)c1` [Example 4] registered an EC50 at Human 5HT-7 of 87 nM. Also, on Human 5-HT7a receptor (setting [1]), the IC50 is 20 nM.

For `COc1ccccc1C(=C1CCN(C)CC1)c1ccc(Cl)s1` [Example 55], on Human 5-HT7a receptor (setting [1]), the IC50 is 39.8 nM.

For `COc1ccc(C)cc1C(=C1CCN(C)CC1)c1cccc(Cl)c1` [Example 57], the IC50 at Human 5-HT7a receptor (setting [1]) was 31.6 nM.

At Human 5-HT7a receptor, `COc1ccccc1C(=C1CCN(C)CC1)c1ccc(Cl)c(Cl)c1` [Example 54] had an IC50 of 31.6 nM.

On to `CCCCN1CCC(=C(c2cccc(Cl)c2)c2cc(OC)ccc2OC)CC1` [Example 60], for which, at Human 5-HT7a receptor (setting [1]), the IC50 is 100 nM.

`CCN1CCC(=C(c2cccc(Cl)c2)c2cc(OC)ccc2OC)CC1` [Example 58] gave an IC50 on Human 5-HT7a receptor of 15.8 nM.

On to `COc1ccccc1C(=C1CCN(CCCNC(=O)OC(C)(C)C)CC1)c1cccc(Cl)c1` [Example 36], for which, on Human 5-HT7a receptor (setting [1]), the IC50 is 100 nM.

As to `COc1ccccc1C(=C1CCN(C)CC1)c1ccc(C)s1` [Example 56], the IC50 on Human 5-HT7a receptor (setting [1]) was 39.8 nM.

As to `COc1ccccc1C(=C1CCN(C)CC1)c1cccc(Cl)c1` [Example 1], at Human 5-HT7a receptor (setting [1]), the IC50 is 39.8 nM.

In the case of `CCCN1CCC(=C(c2cccc(Cl)c2)c2ccccc2OC)CC1` [Example 7], the IC50 on Human 5-HT7a receptor (setting [1]) is 31.6 nM.

For `COc1ccccc1C(=C1CCN(CCNS(=O)(=O)c2cc(Cl)ccc2Cl)CC1)c1cccc(Cl)c1` [Example 49], at Human 5-HT7a receptor (setting [1]), the IC50 was 10 nM.
